Where two headings read alike, the source gives them in different places.
What was measured:
Assay in all cases: Glasshouse assay for herbicidal activity (pre- and post-emergence), percentage phytotoxicity
Type in all cases: in vivo
Avena fatua (AVEFA) = details: Avena fatua
Method in brief: (§1)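 Pot-grown, standard soil. PRE: spray 1 d post-sowing; POST: ~12 d. Glasshouse 24/18 °C (warm spp.) / 20/16 °C (cool spp.), 16 h light, 65% RH, watered 2×/day. Visual % damage, 20 DAA PRE, 15 DAA POST.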

[1] = system: Alopecurus myosuroides (ALOMY); details: Alopecurus myosuroides
Method in brief: as §1

Lolium perenne (LOLPE) = details: Lolium perenne
Method in brief: as §1

[2] = system: Echinochloa crus-galli (ECHCG); details: Echinochloa crus-galli
Method in brief: as §1

[3] = post-emergence, 360 h, 250 g/ha, post-emergence, 15 DAA, visual assessment (100%=total damage, 0%=no damage), read-out: Post-emergence herbicidal activity (percentage phytotoxicity) AVEFA POST
[4] = pre-emergence, 480 h, 250 g/ha, pre-emergence, 20 DAA, visual assessment (100%=total damage, 0%=no damage), read-out: Pre-emergence herbicidal activity (percentage phytotoxicity) AVEFA PRE
[5] = post-emergence, 360 h, 250 g/ha, post-emergence, 15 DAA, visual assessment (100%=total damage, 0%=no damage), read-out: Post-emergence herbicidal activity (percentage phytotoxicity) ALOMY POST
[6] = pre-emergence, 480 h, 250 g/ha, pre-emergence, 20 DAA, visual assessment (100%=total damage, 0%=no damage), read-out: Pre-emergence herbicidal activity (percentage phytotoxicity) ALOMY PRE
[7] = post-emergence, 360 h, 250 g/ha, post-emergence, 15 DAA, visual assessment (100%=total damage, 0%=no damage), read-out: Post-emergence herbicidal activity (percentage phytotoxicity) LOLPE POST
[8] = pre-emergence, 480 h, 250 g/ha, pre-emergence, 20 DAA, visual assessment (100%=total damage, 0%=no damage), read-out: Pre-emergence herbicidal activity (percentage phytotoxicity) LOLPE PRE
[9] = post-emergence, 360 h, 250 g/ha, post-emergence, 15 DAA, visual assessment (100%=total damage, 0%=no damage), read-out: Post-emergence herbicidal activity (percentage phytotoxicity) ECHCG POST
[10] = pre-emergence, 480 h, 250 g/ha, pre-emergence, 20 DAA, visual assessment (100%=total damage, 0%=no damage), read-out: Pre-emergence herbicidal activity (percentage phytotoxicity) ECHCG PRE
[11] = post-emergence, 360 h, Rate 250 g/ha, post-emergence, assessed visually 15 DAA, 100%=total damage, 0%=no damage, read-out: Post-emergence herbicidal activity (percentage phytotoxicity) AVEFA POST
[12] = pre-emergence, 480 h, Rate 250 g/ha, pre-emergence, assessed visually 20 DAA, 100%=total damage, 0%=no damage, read-out: Pre-emergence herbicidal activity (percentage phytotoxicity) AVEFA PRE
[13] = post-emergence, 360 h, Rate 250 g/ha, post-emergence, assessed visually 15 DAA, 100%=total damage, 0%=no damage, read-out: Post-emergence herbicidal activity (percentage phytotoxicity) ALOMY POST
[14] = pre-emergence, 480 h, Rate 250 g/ha, pre-emergence, assessed visually 20 DAA, 100%=total damage, 0%=no damage, read-out: Pre-emergence herbicidal activity (percentage phytotoxicity) ALOMY PRE
[15] = post-emergence, 360 h, Rate 250 g/ha, post-emergence, assessed visually 15 DAA, 100%=total damage, 0%=no damage, read-out: Post-emergence herbicidal activity (percentage phytotoxicity) LOLPE POST
[16] = pre-emergence, 480 h, Rate 250 g/ha, pre-emergence, assessed visually 20 DAA, 100%=total damage, 0%=no damage, read-out: Pre-emergence herbicidal activity (percentage phytotoxicity) LOLPE PRE
[17] = post-emergence, 360 h, Rate 250 g/ha, post-emergence, assessed visually 15 DAA, 100%=total damage, 0%=no damage, read-out: Post-emergence herbicidal activity (percentage phytotoxicity) ECHCG POST
[18] = pre-emergence, 480 h, Rate 250 g/ha, pre-emergence, assessed visually 20 DAA, 100%=total damage, 0%=no damage, read-out: Pre-emergence herbicidal activity (percentage phytotoxicity) ECHCG PRE
[19] = post-emergence, 360 h, POST-emergence, rate 250 g/ha, visual score 15 DAA (100%=total damage, 0%=no damage), read-out: Post-emergence herbicidal activity (percentage phytotoxicity) AVEFA POST
[20] = pre-emergence, 480 h, PRE-emergence, rate 250 g/ha, visual score 20 DAA (100%=total damage, 0%=no damage), read-out: Pre-emergence herbicidal activity (percentage phytotoxicity) AVEFA PRE
[21] = post-emergence, 360 h, POST-emergence, rate 250 g/ha, visual score 15 DAA (100%=total damage, 0%=no damage), read-out: Post-emergence herbicidal activity (percentage phytotoxicity) ALOMY POST
[22] = pre-emergence, 480 h, PRE-emergence, rate 250 g/ha, visual score 20 DAA (100%=total damage, 0%=no damage), read-out: Pre-emergence herbicidal activity (percentage phytotoxicity) ALOMY PRE
[23] = post-emergence, 360 h, POST-emergence, rate 250 g/ha, visual score 15 DAA (100%=total damage, 0%=no damage), read-out: Post-emergence herbicidal activity (percentage phytotoxicity) LOLPE POST
[24] = pre-emergence, 480 h, PRE-emergence, rate 250 g/ha, visual score 20 DAA (100%=total damage, 0%=no damage), read-out: Pre-emergence herbicidal activity (percentage phytotoxicity) LOLPE PRE
[25] = post-emergence, 360 h, POST-emergence, rate 250 g/ha, visual score 15 DAA (100%=total damage, 0%=no damage), read-out: Post-emergence herbicidal activity (percentage phytotoxicity) ECHCG POST
[26] = pre-emergence, 480 h, PRE-emergence, rate 250 g/ha, visual score 20 DAA (100%=total damage, 0%=no damage), read-out: Pre-emergence herbicidal activity (percentage phytotoxicity) ECHCG PRE

CCCNC(=O)CC1CC(=O)C(c2c(C)cccc2CC)C1=O (stereo not drawn) [Compound B150]
pest or weed control at 250 g/ha (Avena fatua (AVEFA); [3]): 100%
pest or weed control at 250 g/ha (Avena fatua (AVEFA); [4]): 90%
pest or weed control at 250 g/ha [1, 5]: 100%
pest or weed control at 250 g/ha [1, 6]: 100%
pest or weed control at 250 g/ha (Lolium perenne (LOLPE); [7]): 100%
pest or weed control at 250 g/ha (Lolium perenne (LOLPE); [8]): 100%
pest or weed control at 250 g/ha [2, 9]: 100%
pest or weed control at 250 g/ha [2, 10]: 100%

Cc1cc(C)c(C2C(=O)CC(CC(=O)NCc3nc4ccccc4s3)C2=O)c(C)c1 (stereo not drawn) [Compound A100]
pest or weed control at 250 g/ha (Avena fatua (AVEFA); [11]): 0%
pest or weed control at 250 g/ha (Avena fatua (AVEFA); [12]): 0%
pest or weed control at 250 g/ha [1, 13]: 70%
pest or weed control at 250 g/ha [1, 14]: 90%
pest or weed control at 250 g/ha (Lolium perenne (LOLPE); [15]): 70%
pest or weed control at 250 g/ha (Lolium perenne (LOLPE); [16]): 80%
pest or weed control at 250 g/ha [2, 17]: 20%
pest or weed control at 250 g/ha [2, 18]: 20%

Cc1cc(OCC(F)(F)F)cc(C)c1C1C(=O)CC(CC(=O)NCc2ccc(C#N)cc2)C1=O (stereo not drawn) [Compound B207]
pest or weed control at 250 g/ha (Avena fatua (AVEFA); [19]): 50%
pest or weed control at 250 g/ha (Avena fatua (AVEFA); [20]): 0%
pest or weed control at 250 g/ha [1, 21]: 80%
pest or weed control at 250 g/ha [1, 22]: 40%
pest or weed control at 250 g/ha (Lolium perenne (LOLPE); [23]): 60%
pest or weed control at 250 g/ha (Lolium perenne (LOLPE); [24]): 10%
pest or weed control at 250 g/ha [2, 25]: 90%
pest or weed control at 250 g/ha [2, 26]: 40%

CC#Cc1cc(C)c(C2C(=O)CC(CC(=O)NCCOC)C2=O)c(CC)c1 (stereo not drawn) [Compound A49]
pest or weed control at 250 g/ha (Avena fatua (AVEFA); [11]): 100%
pest or weed control at 250 g/ha (Avena fatua (AVEFA); [12]): 100%
pest or weed control at 250 g/ha [1, 13]: 100%
pest or weed control at 250 g/ha [1, 14]: 100%
pest or weed control at 250 g/ha (Lolium perenne (LOLPE); [15]): 100%
pest or weed control at 250 g/ha (Lolium perenne (LOLPE); [16]): 100%
pest or weed control at 250 g/ha [2, 17]: 100%
pest or weed control at 250 g/ha [2, 18]: 100%

CCC(C)NC(=O)CC1CC(=O)C(c2c(C)cc(-c3ncc(Cl)cc3F)cc2C)C1=O (stereo not drawn) [Compound B119]
pest or weed control at 250 g/ha (Avena fatua (AVEFA); [3]): 100%
pest or weed control at 250 g/ha (Avena fatua (AVEFA); [4]): 90%
pest or weed control at 250 g/ha [1, 5]: 100%
pest or weed control at 250 g/ha [1, 6]: 100%
pest or weed control at 250 g/ha (Lolium perenne (LOLPE); [7]): 100%
pest or weed control at 250 g/ha (Lolium perenne (LOLPE); [8]): 100%
pest or weed control at 250 g/ha [2, 9]: 100%
pest or weed control at 250 g/ha [2, 10]: 100%

COCC(C)(C)NC(=O)CC1CC(=O)C(c2c(C)cc(-c3ncc(F)cc3F)cc2C)C1=O (stereo not drawn) [Compound B329]
pest or weed control at 250 g/ha (Avena fatua (AVEFA); [19]): 100%
pest or weed control at 250 g/ha (Avena fatua (AVEFA); [20]): 80%
pest or weed control at 250 g/ha [1, 21]: 100%
pest or weed control at 250 g/ha [1, 22]: 100%
pest or weed control at 250 g/ha (Lolium perenne (LOLPE); [23]): 100%
pest or weed control at 250 g/ha (Lolium perenne (LOLPE); [24]): 100%
pest or weed control at 250 g/ha [2, 25]: 100%
pest or weed control at 250 g/ha [2, 26]: 100%

— patent publication US10206394B2, “Herbicidal compounds” (Syngenta Participations AG, priority 2014, dated 2019)
